In patent publication US8642654B2, “Hydroxybutyrate ester and medical use thereof” (ISIS Innovation Limited, priority 2011, dated 2014):
Entries after “also recorded” stand apart in the source; their conditions may differ. Marks after values point to notes of the source that are not given here.

Legend:
[1] = In vivo testing, calorie-controlled diets, 66 days (Example 2); set-up: species or system Wistar rats
Method: Young adult male Wistar rats (starting weight 70 g) (Harlan UK Limited) (n=50) were housed at approximately 20° C. on a 12h:12h reverse light:dark photoperiod. Rats were fed standard laboratory chow (Chow) (SDS, Essex, UK) prior to the starting the experimental diets: (a) normal “Western” diet (Western) in which 34% of kilocalories came from added palmitate (n=20), (b) high-carbohydrate (CHO) in which 70% of kilocalories came from added corn starch (n=10) or (c) (3R)-hydroxybutyl (3R)-hydroxybutyrate diet (monoester) in which 30% of kilocalories came from (3R)-hydroxybutyl (3R)-hydroxybutyrate (n=20). The macronutrient compositions of the three diets are shown below. All diets contained the same energy in kCal/g but had different macronutrients. Rats were individually housed one week prior to the start of the experiments, so that they were accustomed to living in a solitary environment by the time the study started. They consumed standard laboratory chow ad libitum until they were placed on their experimental diet. Rats fed the Western and carbohydrate diets were fed the same number of calories as those consumed by the monoester-fed rats the previous day. All rats were fed for 66 days. After this period the rat body, heart and fat pad weights were determined.

[2] = In vivo testing, meal-fed diets (Example 3); settings: meal-fed rats, n=8 per group
Text: Example 2 was repeated using the same foods as shown in Table 1 but where the rats were meal-fed. […] The daily body weight (in grams per rat per day) was plotted against time for rats in each of the three diet groups over the first six days of the test. One-way analysis of variance with Tukey-Kramer multiple comparison test was used (n=8 per group, **p<0.001). […] The body weight of rats in the group fed the carbohydrate diet remained high throughout the feeding process. […] The daily food intake (in grams per rat per day) was plotted against time for rats in each of the three diet groups over the first seven days of the test. Again, one-way analysis of variance with Tukey-Kramer multiple comparison test was used (n=8 per group, ***p<0.001).

[3] = 28-day study, isonitrogenous and isocaloric diets (Example 4); type: in vivo, Wistar rats; settings: for total amount of weight gained compared with CHOD and NHD groups: 28-day study; for feed intake during days 22 to 29: KD; for body weight on day 28: KD group
Text: In a 28-day study, male and female Wistar rats weighing approximately 350 g were randomized to one of three diet groups (n=10 males and 10 females/group) and administered either a carbohydrate diet (CHOD), a normal human diet (NHD), or a ketone diet (KD). The diets were isonitrogenous and isocaloric, differing only in their relative amounts of carbohydrate, fat, and ketones. In the KD, the ketone used was the ketone monoester (3R)-hydroxybutyl (3R)-hydroxybutyrate diet (i.e. the compound of the invention). In the KD, approximately ⅓ of the energy was derived from the ketone ester, while in the NHD and CHOD, ⅓ of the energy was derived from palmitate and starch, respectively.

[4] = 14-day pair fed meal diets: food consumption and weight gain (Example 5); type: in vivo, Wistar rats; settings: rats, 14-day study
Method: (§1) In a 14-day study, Wistar rats weighing about 250 g were randomized to one of three diet groups (n=6 rats/group) and administered either a carbohydrate (“starch”) diet, a normal human (“fat”) diet or a ketone ester diet, in which the ketone ester used was the ketone monoester (3R)-hydroxybutyl (3R)-hydroxybutyrate diet (i.e. the compound of the invention). The three diets were eaten in pair fed meals for 3 hours per day. The composition of the diets expressed in terms of g/100 g are summarised in Table 5 and the compositions expressed in terms of % of calories are summarised in Table 6.

[5] = system: Krebs cycle and CoA intermediates in the brain; assay: Brain Krebs cycle and CoA intermediates after 14 days of diet; type: in vivo, Wistar rats; settings: rat brain
Method: In a 14-day study, Wistar rats weighing about 250 g were randomized to one of three diet groups (n=6 rats/group) and administered either a carbohydrate (“starch”) diet, a normal human (“fat”) diet or a ketone ester diet, in which the ketone ester used was the ketone monoester (3R)-hydroxybutyl (3R)-hydroxybutyrate diet (i.e. the compound of the invention). The three diets were eaten in pair fed meals for 3 hours per day. The composition of the diets expressed in terms of g/100 g are summarised in Table 5 and the compositions expressed in terms of % of calories are summarised in Table 6. After eating the 3 diets in pair fed meals for 3 hours per day for 14 days, the levels of various Krebs cycle and CoA intermediates in the brain were measured enzymatically and by mass spectrometry using standard techniques. […] Malonyl CoA is a metabolite known to be associated with decreased food intake; it is known to decrease appetite (Wolfgang, M. J. and Lane, M. D. (2006) J. Biol. Chem. 281, 37265-37269). […] The values in Table 7 are means, in μmoles/g wet weight, ±SEM with n=6 to 8. CoA's are given in nmol/g wet weight.

[6] = system: free nucleotide ratios and concentrations in the brain; assay: Calculated free nucleotide ratios and concentrations in freeze blown brain after 14 days of diet; type: in vivo, Wistar rats
Method: as §1
After the rats were fed on the diets for 14 days, the ratios of free nucleotide and the free nucleotide concentrations were determined. Measurements were performed on the freeze blown brain and metabolite ratios of the rats calculated as previously described (Veech, R. L. et al, J. Biol. Chem. 254:6538-47, 1979). The values in Table 8 are given as means±SEM (n=6 to 8). Cytosolic pH was assumed to be 7.2.

[7] = system: Brain Derived Neurotropic Factor (BDNF); assay: Neuropeptide levels in sectioned rat brain by antibody techniques: BDNF; type: in vivo; settings: rat hypothalamus, ketone diet
Method: (§2) In a 14-day study, Wistar rats weighing about 250 g were randomized to one of three diet groups (n=6 rats/group) and administered either a carbohydrate (“starch”) diet, a normal human (“fat”) diet or a ketone ester diet, in which the ketone ester used was the ketone monoester (3R)-hydroxybutyl (3R)-hydroxybutyrate diet (i.e. the compound of the invention). The three diets were eaten in pair fed meals for 3 hours per day. The composition of the diets expressed in terms of g/100 g are summarised in Table 5 and the compositions expressed in terms of % of calories are summarised in Table 6. After 14 days of feeding with the fat, carbohydrate or ketone ester diet, the levels of various neuropeptides known to be associated with decreased food intake and decreased appetite (“anorexigenic” peptides) were surveyed in the paraventricular nucleus (PVN) area of the hypothalamus and in the hippocampus of the rat brain. The neuropeptide levels were measured using standard antibody techniques performed on sectioned brains of the rats. The results are shown in the micrographs of FIGS. 3 to 9. The peptides measured were Brain Derived Neurotropic Factor (BDNF), melanocyte-stimulating hormone receptor 4 (MC4R), and Cocaine-and-Amphetamine Responsive Transcript (CART). […]

[8] = system: melanocyte-stimulating hormone receptor 4 (MC4R); assay: Neuropeptide levels in sectioned rat brain by antibody techniques: MC4R; type: in vivo; settings: rat hypothalamus, 14 days ketone diet
Method: as §2

[9] = system: Cocaine-and-Amphetamine Responsive Transcript (CART); assay: Neuropeptide levels in sectioned rat brain by antibody techniques: CART; type: in vivo; settings: 14 days ketone diet
Method: as §2

[10] = Blood levels of (3R)-hydroxybutyrate after oral ingestion; type: in vivo; settings: ingested orally
[11] = rats, monoester diet, 66 days, n = 20
[12] = 14 days ketone ester diet, mean ± SEM
[13] = rat brain, 14 days ketone ester diet, mean ± SEM
[14] = rat brain, 14 days ketone ester diet, mean ± SEM, p < 0.05 vs starch and vs fat

Q: What does the source list for `C[C@@H](O)CCOC(=O)C[C@@H](C)O` [Monoester, (3R)-hydroxybutyl (3R)-hydroxybutyrate]?
A: fat pad weight compared with Western or carbohydrate diet ([1]; end of the 66-day test): significantly lower; fat to body weight compared with other diets ([1]; end of the 66-day test): significantly lower; Final body weight ([1]; rats, monoester diet (30% of kilocalories), calorie-controlled, 66 days, n = 20): 213 ± 5 g; Heart to body weight [1, 11]: 0.29 ± 0.01%; Heart weight [1, 11]: 0.64 ± 0.02 g; Epididymal fat ([1]; rats, monoester diet, 66 days, n = 20, *P < 0.05): 1.48 ± 0.2* g; Epididymal fat to body weight ([1]; rats, monoester diet, 66 days, n = 20, *P < 0.05, in % (unit assumed)): 0.69 ± 0.1*; daily food intake compared with carbohydrate and Western diets (FIG. 2) ([2]; first seven days): ate less food; also recorded: consistently reduced; daily body weight compared with carbohydrate and Western diets (FIG. 1) ([2]; first six days): Significantly reduced; also recorded: lost more weight; total amount of weight gained compared with CHOD and NHD groups ([3]; female rats): significantly less; feed intake during days 22 to 29 ([3]; female rats): 175 ± 12 g; body weight on day 28 ([3]; female rats): 240 ± 13 g; total amount of weight gained compared with CHOD and NHD groups ([3]; male rats): significantly less; feed intake during days 22 to 29 ([3]; male rats): 239 ± 17 g; body weight on day 28 ([3]; male rats): 390 ± 26 g; food consumption compared with starch or fat diets [4]: consume less food; weight gain compared with starch or fat diets [4]: gain less weight; malonyl CoA levels in the brain compared with other diets ([5]; 14 days): higher; Acetyl CoA [5, 12]: 6.43 ± 0.53 µM; Fumarate [5, 12]: 0.0745 ± 0.0058 μmoles/g wet weight; Isocitrate [5, 12]: 0.0093 ± 0.008 μmoles/g wet weight; L-Malate [5, 12]: 0.181 ± 0.013 μmoles/g wet weight; Succinate [5, 12]: 0.0864 ± 0.0033 μmoles/g wet weight; Succinyl CoA [5, 12]: 0.910 ± 0.207 µM; α-ketoglutarate [5, 12]: 0.140 ± 0.008 μmoles/g wet weight; Calc Oxaloacetate ([5]; 14 days ketone ester diet, mean ± SEM, calculated): 0.0026 ± 0.0004 μmoles/g wet weight; Citrate ([5]; 14 days ketone ester diet, mean ± SEM, n=6 to 8): 0.222 ± 0.010 μmoles/g wet weight; Malonyl CoA ([5]; 14 days ketone ester diet, mean ± SEM, p < 0.05 between ketone ester and starch): 1.26 ± 0.13 ^a μM; brain phosphorylation potential compared with carbohydrate and fat diets ([6]; after 14 days of diet): significantly higher; ΔG′ of ATP hydrolysis compared with carbohydrate and fat diets ([6]; after 14 days of diet): significantly higher; EhCoQ/CoQH2 from Fum/Succ [6, 13]: 28.9 ± 0.6 mV; Free [ADP] cytosol from PCr/Cr [6, 13]: 0.027 ± 0.001 µM/g; Free [AMP] cytosol from Kmyokinase [6, 13]: 0.0004 ± 0.00003 µM/g; Free [Mg^2+] from [Cit]/[Isocit] [6, 13]: 1.5 ± 0.13 mM; Free [NAD^+]/[NADH] mitochochondria from αKGxNH4^+/Glut [6, 13]: 0.80 ± 0.17; Free [NAD^+]/[NADPH] cytosol from αKGxCO2/IsoCit [6, 13]: 0.026 ± 0.003; Free [NAD^+]/[NADH] cytosol from Lactate/Pyruvate ([6]; rat brain, 14 days ketone ester diet, mean ± SEM, cytosolic pH assumed 7.2): 357 ± 27; Phosphorylation Potential from Kg + g (Eqn 1) [6, 14]: 38,100 ± 3,390 ^a, b M^−1; ΔG′ ATP [6, 14]: −59.6 ± 0.2 ^a, b kJ/mol; BDNF-positive cell bodies in the paraventricular nucleus (PVN), compared to fat and carbohydrate diets (FIG. 3) [7]: significantly more; also recorded: more BDNF; also recorded: significantly greater number; MC4R positive cell bodies in pm and mpd regions of the PVN, compared to fat diet (FIGS. 4 and 5) [8]: significantly higher density; also recorded: more MC4R activity; also recorded: Significantly greater numbers; also recorded: significantly denser area; CART-positive cell bodies in VMH, ARC and ME areas of the hypothalamus (FIG. 7) [9]: highest numbers; CART positive cell bodies in the PVN, compared to fat and carbohydrate diets (FIGS. 6, 8, 9) ([9]; rat hypothalamus): highest level; also recorded: more CART; also recorded: significantly greater number; also recorded: highest density; blood levels of (3R)-hydroxybutyrate [10]: measurably raised
